# Laboratory results: PubChem BioAssay AID2060889 (Molecular Pharmacology Branch, DTP, NCI, 2025)
# Test system: LG0567-F671-PDC complex spheroids viability
# Test: Anticancer human tumor LG0567-F671-PDC patient-derived lung adenocarcinoma cell line growth inhibition [RAS]
# Settings: for IC50: curve of first compound; for viability, T/C: stronger effect = lower value
# In short: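 Tumour cells grown as complex spheroids with HUVEC endothelial cells and mesenchymal stem cells, treated with RAS pathway inhibitor combinations. Each agent spans half-log steps from near clinical Cmax, or 10 microM where Cmax is unknown.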
# [1] = second compound 0.000949 µM, first compound 0.0316 µM
# [2] = second compound 0.000949 µM, first compound 0.1 µM
# [3] = second compound 0.000949 µM, first compound 0.316 µM
# [4] = second compound 0.000949 µM, first compound 1 µM
# [5] = second compound 0.000949 µM, first compound 3.16 µM
# [6] = second compound 0.000949 µM, first compound 10 µM
# [7] = second compound 0.003 µM, first compound 0.0316 µM
# [8] = second compound 0.003 µM, first compound 0.1 µM
# [9] = second compound 0.003 µM, first compound 0.316 µM
# [10] = second compound 0.003 µM, first compound 1 µM
# [11] = second compound 0.003 µM, first compound 3.16 µM
# [12] = second compound 0.003 µM, first compound 10 µM
# [13] = second compound 0.00949 µM, first compound 0.0316 µM
# [14] = second compound 0.00949 µM, first compound 0.1 µM
# [15] = second compound 0.00949 µM, first compound 0.316 µM
# [16] = second compound 0.00949 µM, first compound 1 µM
# [17] = second compound 0.00949 µM, first compound 3.16 µM
# [18] = second compound 0.00949 µM, first compound 10 µM
# [19] = second compound 0.03 µM, first compound 0.0316 µM
# [20] = second compound 0.03 µM, first compound 0.1 µM
# [21] = second compound 0.03 µM, first compound 0.316 µM
# [22] = second compound 0.03 µM, first compound 1 µM
# [23] = second compound 0.03 µM, first compound 3.16 µM
# [24] = second compound 0.03 µM, first compound 10 µM
# [25] = second compound 0.0949 µM, first compound 0.0316 µM
# [26] = second compound 0.0949 µM, first compound 0.1 µM
# [27] = second compound 0.0949 µM, first compound 0.316 µM
# [28] = second compound 0.0949 µM, first compound 1 µM
# [29] = second compound 0.0949 µM, first compound 3.16 µM
# [30] = second compound 0.0949 µM, first compound 10 µM
# [31] = second compound 0.3 µM, first compound 0.0316 µM
# [32] = second compound 0.3 µM, first compound 0.1 µM
# [33] = second compound 0.3 µM, first compound 0.316 µM
# [34] = second compound 0.3 µM, first compound 1 µM
# [35] = second compound 0.3 µM, first compound 3.16 µM
# [36] = second compound 0.3 µM, first compound 10 µM
# 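Further: spheroids exposed to compound for seven days before readout.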
# 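Wherever IC50 is given: luminescence signal used as a proxy for viable cells.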
structure (smiles),measurement,setting,value
CC1(O)CCCC1n1c(=O)c(C(F)F)cc2cnc(NC3CCN(S(C)(=O)=O)CC3)nc21 (centres undefined) + CCn1c(-c2cccnc2C(C)OC)c2c3cc(ccc31)N1CCOC(CC(NC(=O)C(C(C)C)N(C)C(=O)C3(F)CCN(C(=O)C#CC(C)(C)N(C)C)CC3)C(=O)N3CCCC(N3)C(=O)OCC(C)(C)C2)C1,IC50,second compound 0.000949 µM,< 31.6 nM
same,IC50,second compound 0.003 µM,< 31.6 nM
same,IC50,second compound 0.00949 µM,< 31.6 nM
same,IC50,second compound 0.03 µM,< 31.6 nM
same,IC50,second compound 0.0949 µM,< 31.6 nM
same,IC50,second compound 0.3 µM,< 31.6 nM
same,"viability, T/C",[1],17.6%
same,"viability, T/C",[2],18.2%
same,"viability, T/C",[3],18.2%
same,"viability, T/C",[4],21.6%
same,"viability, T/C",[5],22.6%
same,"viability, T/C",[6],18%
same,"viability, T/C",[7],17.6%
same,"viability, T/C",[8],16.9%
same,"viability, T/C",[9],18.5%
same,"viability, T/C",[10],21.3%
same,"viability, T/C",[11],24.5%
same,"viability, T/C",[12],16.8%
same,"viability, T/C",[13],15.8%
same,"viability, T/C",[14],16.7%
same,"viability, T/C",[15],20.2%
same,"viability, T/C",[16],20.4%
same,"viability, T/C",[17],20.7%
same,"viability, T/C",[18],16.2%
same,"viability, T/C",[19],14.5%
same,"viability, T/C",[20],15.2%
same,"viability, T/C",[21],19.5%
same,"viability, T/C",[22],19.1%
same,"viability, T/C",[23],20.2%
same,"viability, T/C",[24],16.3%
same,"viability, T/C",[25],13.5%
same,"viability, T/C",[26],15.5%
same,"viability, T/C",[27],16.1%
same,"viability, T/C",[28],17.1%
same,"viability, T/C",[29],18.6%
same,"viability, T/C",[30],15.6%
same,"viability, T/C",[31],11.8%
same,"viability, T/C",[32],12.4%
same,"viability, T/C",[33],14.1%
same,"viability, T/C",[34],16.2%
same,"viability, T/C",[35],17.4%
same,"viability, T/C",[36],11.8%
CCC(CC)c1cc(NC2CCC(N)C2)n2nccc2n1 (centres undefined) + CCn1c(-c2cccnc2C(C)OC)c2c3cc(ccc31)N1CCOC(CC(NC(=O)C(C(C)C)N(C)C(=O)C3(F)CCN(C(=O)C#CC(C)(C)N(C)C)CC3)C(=O)N3CCCC(N3)C(=O)OCC(C)(C)C2)C1,IC50,second compound 0.000949 µM,< 31.6 nM
same,IC50,second compound 0.003 µM,< 31.6 nM
same,IC50,second compound 0.00949 µM,< 31.6 nM
same,IC50,second compound 0.03 µM,< 31.6 nM
same,IC50,second compound 0.0949 µM,< 31.6 nM
same,IC50,second compound 0.3 µM,< 31.6 nM
same,"viability, T/C",[1],21.2%
same,"viability, T/C",[2],16.6%
same,"viability, T/C",[3],13.3%
same,"viability, T/C",[4],13.9%
same,"viability, T/C",[5],4.31%
same,"viability, T/C",[6],0.82%
same,"viability, T/C",[7],14.1%
same,"viability, T/C",[8],16.1%
same,"viability, T/C",[9],14.6%
same,"viability, T/C",[10],13.5%
same,"viability, T/C",[11],4.44%
same,"viability, T/C",[12],0.75%
same,"viability, T/C",[13],13.7%
same,"viability, T/C",[14],15%
same,"viability, T/C",[15],13.3%
same,"viability, T/C",[16],14.2%
same,"viability, T/C",[17],3.48%
same,"viability, T/C",[18],0.89%
same,"viability, T/C",[19],13.2%
same,"viability, T/C",[20],13.2%
same,"viability, T/C",[21],11.8%
same,"viability, T/C",[22],12.3%
same,"viability, T/C",[23],3.67%
same,"viability, T/C",[24],0.88%
same,"viability, T/C",[25],10.6%
same,"viability, T/C",[26],12.2%
same,"viability, T/C",[27],10.4%
same,"viability, T/C",[28],12%
same,"viability, T/C",[29],4.19%
same,"viability, T/C",[30],1%
same,"viability, T/C",[31],8.88%
same,"viability, T/C",[32],7.92%
same,"viability, T/C",[33],8.86%
same,"viability, T/C",[34],9.25%
same,"viability, T/C",[35],3.79%
same,"viability, T/C",[36],0.7%
